{
  "source": "PubChem BioAssay AID1985",
  "about": "(Southern Research Specialized Biocontainment Screening …, 2009)",
  "data": [
    {"tested_on": "S. Typhi PhoP-promoter GFP reporter, fluorescence, 4 h", "experiment": "modified counter assay using GFP fluorescence, PhoP regulon inhibitor project, dose response (AID 1985)", "units": {"IC50": "µM"}, "values": [
      {"smiles": "COc1ccc(NC2=NC3(CCCCC3)N=C(N)N2)cc1", "IC50": 141},
      {"smiles": "S=C(Nc1cc(Cl)cc(Cl)c1)NC1CCN(Cc2ccccc2)CC1", "IC50": 36.7},
      {"smiles": "CC1CCc2c(N3CCC(O)CC3)c(F)cc3c(=O)c(C(=O)O)cn1c23", "note": "(stereo not given)", "IC50": 4.44},
      {"smiles": "CN1CCN(c2cc3c(cc2F)c(=O)c(C(=O)O)cn3CCF)CC1", "IC50": 0.444},
      {"smiles": "O=C(Nc1c2ccccc2nc2ccccc12)C(Cl)(Cl)Cl", "IC50": 43.8},
      {"smiles": "C#CCOCCOCCOCCNc1nc(N2CCN(C(=O)CCCCCCCCCCNC(=O)[C@H](CCCCN)n3cc(CCO)nn3)CC2)nc(N2CCN(C(=O)CCCCCCCCCCNC(=O)[C@H](CCCCN)n3cc(C[C@@H](C)CC)nn3)CC2)n1", "IC50": 38},
      {"smiles": "O=C(CCN1CCN(c2ccccc2F)CC1)c1ccc(Br)cc1", "IC50": 43.4},
      {"smiles": "CCn1cc(C(=O)O)c(=O)c2cnc(N3CCNCC3)nc21", "IC50": 113},
      {"smiles": "C#CCOCCOCCOCCNc1nc(N2CCN(C(=O)CCCCCCCCCCNC(=O)[C@H](CCCCN)n3cc(C[C@@H](C)CC)nn3)CC2)nc(N2CCN(C(=O)CCCCCCCCCCNC(=O)[C@@H]([C@H](C)O)n3cc(C)nn3)CC2)n1", "IC50": 138},
      {"smiles": "Cc1ccc2nc(NCc3ccccc3)[nH]c2c1", "IC50": 72.6},
      {"smiles": "Nc1nnc(-c2cccc(Cl)c2Cl)c(N)n1", "IC50": 33},
      {"smiles": "NC1=NC[C@H](Cc2ccc(O)cc2)N1CCCCC1CCCCC1", "IC50": 25.5},
      {"smiles": "CC(C)(C)c1ccc(OCCCCCCN2CCNCC2)cc1", "IC50": 127},
      {"smiles": "Cc1cc(C)n(-c2nc(SCCN(C)C)c3c4c(sc3n2)CCCC4)n1", "IC50": 80.1},
      {"smiles": "Cc1cccn2c(=O)c(C=O)c(Cl)nc12", "IC50": 140},
      {"smiles": "CC(C)(c1ccccc1)c1ccc(OCCCNCCO)cc1", "IC50": 93.5},
      {"smiles": "CO/N=C(/C(=O)N[C@@H]1C(=O)N2C(C(=O)O)=CCS[C@H]12)c1cnc(N)s1", "IC50": 59.8},
      {"smiles": "Fc1ccc(Nc2c3c(nc4ccccc24)CCC3)cc1", "IC50": 85},
      {"smiles": "CN(C)C1C(=O)C(C(N)=O)=C(O)C2(O)C(=O)C3=C(O)c4c(O)cccc4C(C)(O)C3C(O)C12", "note": "(stereo not given)", "IC50": 1.54},
      {"smiles": "CCCCCCCCCCOC(=O)Cn1c(COc2ccc(C)cc2)[n+](C)c2ccccc21", "IC50": 16.6},
      {"smiles": "O=C(Cn1cncn1)N/N=C/c1ccccc1O", "IC50": 103},
      {"smiles": "COc1cc(C(=O)O/N=C2\\C=CC(=O)C(C)=C2)cc(OC)c1OC", "IC50": 131},
      {"smiles": "CCCCCCCCCCCCCCCC[N+](C)(C)CC", "IC50": 22.4},
      {"smiles": "CCCCCCCCCC[N+](C)(C)CC/C=C1/c2ccccc2Sc2ccc(Cl)cc21", "IC50": 16.5},
      {"smiles": "CCn1cc(C(=O)O)c(=O)c2cc(F)c(N3CCN(C(=S)NC(=O)c4ccccc4)CC3)cc21", "IC50": 24},
      {"smiles": "Cc1ccc2sc(N(CCCN(C)C)C(=O)c3ccc(Br)s3)nc2c1C", "IC50": 120},
      {"smiles": "CC(NCc1ccc(Cl)c(Cl)c1)C(O)c1ccccc1", "note": "(stereo not given)", "IC50": 82.3},
      {"smiles": "O=C(/C=C(\\O)c1ccccc1)C(=O)NNC(=O)c1ccccc1", "IC50": 19.7},
      {"smiles": "CN1CC=C(/C=C/c2ccc(-c3ccccc3)cc2)CC1", "IC50": 95.2},
      {"smiles": "O=C(NC(=S)NNC(=O)c1ccco1)c1ccc(Br)cc1", "IC50": 69},
      {"smiles": "O=c1c(O)cccc2cc(O)c(O)c(O)c12", "IC50": 17.5},
      {"smiles": "O=C(NC1CCCC1)c1ccc(Br)s1", "IC50": 34},
      {"smiles": "O=C(Nc1ccccc1)Nc1nccs1", "IC50": 128},
      {"smiles": "CCCCCCCCCCOC(=O)Cn1c(COc2cccc(OC)c2)[n+](C)c2ccccc21", "IC50": 18.1},
      {"smiles": "[O-][n+]1c2ccccc2cc2ccccc21", "IC50": 88},
      {"smiles": "C/C(=N\\N=C(N)N)c1ccc(Cl)c(Cl)c1", "IC50": 51.5},
      {"smiles": "O=C(O)c1cc2c(cn1)[nH]c1ccccc12", "IC50": 73},
      {"smiles": "CCN1CCCC1CNC(=O)c1cc2cc(F)ccc2[nH]1", "note": "(stereo not given)", "IC50": 91},
      {"smiles": "CCOC(=O)c1ccc(CNCc2ccc(Br)cc2)cc1", "IC50": 53.8},
      {"smiles": "CC(NCc1ccc(Cl)cc1)C(O)c1ccccc1", "note": "(stereo not given)", "IC50": 128},
      {"smiles": "CN1CCN(C(c2cccc(Cl)c2)c2ccccc2Cl)CC1", "note": "(stereo not given)", "IC50": 107},
      {"smiles": "Nc1[nH]ncc1-c1ccccc1", "IC50": 31.9},
      {"smiles": "COc1ccc(/C=C/c2cc[n+](C(=O)Cc3ccccc3)cc2)cc1", "IC50": 107},
      {"smiles": "O=c1cc(-c2ccccc2)cc(-c2ccccc2)n1O", "IC50": 51.7},
      {"smiles": "O=C(/C=C/c1cccs1)NC(=S)NNC(=O)c1ccccc1O", "IC50": 27},
      {"smiles": "Fc1cccc(Nc2c3c(nc4ccccc24)CCC3)c1", "IC50": 126},
      {"smiles": "O=C(N/N=C/c1ccc(O)c(O)c1)C1c2ccccc2Oc2ccccc21", "IC50": 106},
      {"smiles": "Cc1cc(C)nc(SCC(=O)Nc2sc3c(c2C#N)CCC(C)C3)n1", "note": "(stereo not given)", "IC50": 41.8},
      {"smiles": "Oc1ccc(Cl)cc1Cc1cc(Cl)ccc1O", "IC50": 36},
      {"smiles": "O=C(Oc1ccc[nH]c1=O)c1cc([N+](=O)[O-])cc([N+](=O)[O-])c1", "IC50": 46},
      {"smiles": "Nc1nc(Nc2ccc(Cl)cc2)nc2ccccc12", "IC50": 33},
      {"smiles": "C#CCOCCOCCOCCNc1nc(N2CCN(C(=O)CCCCCCCCCCNC(=O)Cn3cc(CCCCCN)nn3)CC2)nc(N2CCN(C(=O)CCCCCCCCCCNC(=O)[C@H]([C@@H](C)CC)n3cc(CCCCN=C(N)N)nn3)CC2)n1", "IC50": 36.8},
      {"smiles": "CCCCCCCCCCCCCCCCn1cc[n+](C)c1", "IC50": 19.1},
      {"smiles": "O=C(N/N=C/c1cc([N+](=O)[O-])ccc1O)C(O)(c1ccccc1)c1ccccc1", "IC50": 60.4},
      {"smiles": "CC(=O)NNC(=S)NC(=O)c1ccccc1", "IC50": 22.7},
      {"smiles": "O=C(Nc1cccc(C2=NCCN2)c1)Nc1cccc(C2=NCCN2)c1", "IC50": 36.2},
      {"smiles": "Cc1ccc2nc(/C(C#N)=C\\c3ccc([N+](=O)[O-])o3)[nH]c2c1", "IC50": 23.3},
      {"smiles": "O=C(CCN1CCOCC1)c1ccc(Br)cc1", "IC50": 129},
      {"smiles": "CCCCCc1ccc(OCCCC[n+]2cccc(C)c2)c(CCCCC)c1", "IC50": 103},
      {"smiles": "O=C(Nc1ccc2nc(-c3ccc(Br)o3)[nH]c2c1)c1ccco1", "IC50": 130},
      {"smiles": "COc1ccc(C(=O)NNC(=S)NC(=O)c2ccccc2)cc1", "IC50": 82.5},
      {"smiles": "COc1ccc2c(C(=O)CCl)c[nH]c2c1", "IC50": 36.3},
      {"smiles": "Clc1ccc(C[n+]2cc(-c3ccc(Cl)cc3)n3c2CCC3)cc1", "IC50": 101},
      {"smiles": "O=c1c2c([nH]c3ccccc13)CCCCC2", "IC50": 78.4},
      {"smiles": "O=C(Nc1ccc([N+](=O)[O-])cc1Cl)c1cc(Cl)ccc1O", "IC50": 76},
      {"smiles": "C(=N/Nc1nccs1)/c1cccnc1", "IC50": 61.5},
      {"smiles": "CN(C)c1ccc(Nc2nc(N)c3ccccc3n2)cc1", "IC50": 62.4},
      {"smiles": "O=C(CCN1CCOCC1)N/N=C/c1cc(Br)cc(Br)c1O", "IC50": 30.7},
      {"smiles": "O=C(Nc1cccc(Br)c1)c1cc2ccccc2o1", "IC50": 47.4},
      {"smiles": "Cc1ccc2oc(=O)c(/C=C(\\O)c3ccccc3)nc2c1", "IC50": 46.7},
      {"smiles": "O=[N+]([O-])c1cccc2c(N3CCCC3)ccnc12", "IC50": 17.6},
      {"smiles": "O=c1cc(-c2ccc(O)cc2)oc2c(O)c(O)c(O)c(O)c12", "IC50": 40.2},
      {"smiles": "O=C(O)c1cn(-c2ccc(F)cc2)c2cc(Cl)c(F)cc2c1=O", "IC50": 89.8},
      {"smiles": "CN1CCN(C2=Cc3ccccc3Sc3cc(F)ccc32)CC1", "IC50": 114},
      {"smiles": "O=C(N/N=C/c1ccccn1)c1ccc(Br)o1", "IC50": 50.1},
      {"smiles": "NC1CCN(c2nc3c(cc2F)c(=O)c(C(=O)O)cn3-c2ccc(F)cc2F)C1", "note": "(stereo not given)", "IC50": "< 0.23"},
      {"smiles": "Cc1ccc(-c2csc(N=C(N)N)n2)c(C)c1", "IC50": 64.8},
      {"smiles": "CCc1ccc(CNCc2ccc(OCC(O)CN(C)Cc3ccccc3)cc2)nc1", "note": "(stereo not given)", "IC50": 146},
      {"smiles": "Clc1ccc2[nH]c3c(c2c1)CCc1cn[nH]c1-3", "IC50": 74.8},
      {"smiles": "Oc1cc(Cl)ccc1Oc1ccc(Cl)cc1Cl", "IC50": 0.369},
      {"smiles": "Nc1nc(Nc2cccc(F)c2)nc2ccccc12", "IC50": 54},
      {"smiles": "CCCCOc1ccc(C(=O)NNC(=S)NC(=O)CC)cc1", "IC50": 38.9},
      {"smiles": "O=C(C[n+]1cccc(CNC(=O)c2ccc(OC(F)F)cc2)c1)Nc1ccc(SC(F)F)cc1", "IC50": 42.1},
      {"smiles": "O=c1[nH]c(-c2ccccn2)nc(C(F)(F)F)c1Br", "IC50": 66.7},
      {"smiles": "Cc1cc(C)n2nc(S(=O)(=O)Nc3c(Cl)cccc3Cl)nc2n1", "IC50": 11.1}
    ]}
  ]
}
